According to patent US6956034B2, “Oxazin(ethyl)one compounds used as fungicides” (BASF Aktiengesellschaft, priority 2001, dated 2005):

Experiments:
[1] = tested on: mildew of cucumbers (Sphaerotheca fuliginea); test: Protective activity against mildew of cucumbers; format: in vivo; settings: cucumber seedlings, sprayed 20 h before inoculation, 7 days, untreated 90
Method: The active compounds were used as aqueous preparations of active compounds which contained the active compound in a concentration of 250 ppm, 63 ppm, 16 ppm and 4 ppm, respectively. The aqueous preparation of active compound was prepared by diluting a stock solution of 10% by weight of active compound, 63% by weight of cyclohexanone and 27% by weight of emulsifier (20 parts by weight of Nekanil® LN (Lutensol® AP6, wetting agent having emulsifying and dispersing action based on ethoxylated alkylphenols) and 10 parts by weight of Wettol® EM (nonionic emulsifier based on ethoxylated castor oil)) with water in the amount required for the desired concentration.
Leaves of cucumber seedlings of the cultivar “Chinesische Schlange” which had been grown in pots were, at the cotyledon stage, sprayed to runoff point with an aqueous preparation of active compound. 20 hours after the spray coating had dried on, the plants were inoculated with an aqueous spore suspension of mildew of cucumbers (Sphaerotheca fuliginea). The plants were then cultivated in a greenhouse at 20-24° C. and 60-80% relative atmospheric humidity for 7 days. The extent of the mildew development was then determined visually in % infection of the cotyledon area.

[2] = tested on: mildew of wheat (Erysiphe [syn. Blumeria] graminis forma specialis tritici); test: Protective activity against mildew of wheat; format: in vivo; settings: wheat seedlings, sprayed 24 h before inoculation, 7 days, untreated 85
Method: The active compounds were used as aqueous preparations of active compounds which contained the active compound in a concentration of 250 ppm, 63 ppm, 16 ppm and 4 ppm, respectively. The aqueous preparation of active compound was prepared by diluting a stock solution of 10% by weight of active compound, 63% by weight of cyclohexanone and 27% by weight of emulsifier (20 parts by weight of Nekanil® LN (Lutensol® AP6, wetting agent having emulsifying and dispersing action based on ethoxylated alkylphenols) and 10 parts by weight of Wettol® EM (nonionic emulsifier based on ethoxylated castor oil)) with water in the amount required for the desired concentration. The first fully developed leaves of the wheat seedlings of the variety “Kanzler” which had been grown in pots were sprayed to runoff point with an aqueous preparation of active compound prepared from a stock solution containing 10% of active compound, […]. 24 hours after the spray coating had dried on, the plants were inoculated with an aqueous spore suspension of mildew of wheat (Erysiphe [syn. Blumeria] graminis forma specialis. tritici). The plants were then cultivated in a greenhouse at 20-24° C. and 60-90% relative atmospheric humidity. After 7 days the extent of the mildew development was determined visually in % infection of the leaves.

Measured: percentage of infection of leaves at the prescribed concentration of active compound

CCCON=c1oc2ccc(I)cc2c(=O)n1CCC [I - A1.12]
0%: [1]; 16 ppm | [1]; 63 ppm | [1]; 250 ppm | [2]; 16 ppm | [2]; 63 ppm | [2]; 250 ppm

CCCCn1c(=NOC)oc2ccc(I)cc2c1=O [I - A1.20]
0%: [1]; 16 ppm | [1]; 63 ppm | [1]; 250 ppm | [2]; 16 ppm | [2]; 63 ppm | [2]; 250 ppm
